Experiments:
[1] = Cytotoxic activity (MTT) against normal gingival fibroblast HGF; type: cell-based; settings: human, HGF normal gingival fibroblasts, HGF normal oral cells, 48 h incubation
Experimental: (§1) Human normal oral mesenchymal cells, gingival fibroblast (HGF), and periodontal ligament fibroblast (HPLF) established from the first premolar tooth extracted from the lower jaw of a child[47] and human OSCC cell line HSC-2 (derived from tongue), purchased from Riken Cell Bank (Tsukuba, Japan), were cultured at 37 °C in DMEM supplemented with 10% heat-inactivated FBS, 100 units/ml penicillin G, and 100 µg/ml streptomycin sulphate under a humidified 5% CO2 atmosphere. HGF and HPLF cells at 10–18 population doubling levels were used in this study.
(§2) Cells were inoculated at 2.5 × 10^3 cells/0.1 ml in a 96-microwell plate (Becton Dickinson Labware, Franklin Lakes, NJ). After 48 h, the medium was replaced with 0.1 ml of fresh medium containing different concentrations of single test compounds. Cells were incubated further for 48 h and the relative viable cell number was then determined by the MTT method[22]^,[48–54]. All benzoxazolone derivatives were dissolved with DMSO at the concentration of 40 mM and stored until use. Control cells were treated with the same amounts of DMSO ([…], 0.03125, 0.0625, 0.125, 0.25, 0.5, and 1.0%) and the cell damage induced by DMSO was subtracted from that induced by test agents. In brief, cells were stained with MTT reagent, dissolved with DMSO, and the absorbance of the MTT-stained cell lysate was measured at 560 nm, using a microplate reader (Infinite F 50R, TECAN, Kawasaki, Japan). […]

[2] = Cytotoxic activity (MTT) against normal periodontal ligament fibroblast HPLF; type: cell-based; settings: human, HPLF normal periodontal ligament fibroblasts, HPLF normal oral cells, 48 h incubation
Experimental: as §1, §2

hCA II = hCA II (Homo sapiens, UniProt P00918); assay: Carbonic anhydrase inhibition, hCA II; type: biochemical; settings: for Ki: Lineweaver–Burk, three concentrations
Experimental: (§3) The purification of cytosolic CA isoenzymes (CA I and CA II) was previously described with a simple one-step method by a Sepharose-4B-L tyrosine-sulphanilamide affinity chromatography[42]^,[53]^,[55–58]. The protein quantity in the column effluents was determined spectrophotometrically at 280 nm. Sodium dodecyl sulphate-polyacrylamide gel electrophoresis (SDS-PAGE) was applied with a Bio-Rad Mini Gel system Mini-PROTEIN system (Bio-Rad Laboratories, Inc., Shanghai, China) after purification of both CA isoenzymes. Briefly, it was performed in acrylamide for the running (10%) and the stacking gel (3%) contained SDS (0.1%), respectively. […] Bovine serum albumin was used as a standard protein. The IC50 values were obtained from activity (%) versus compounds plots. For the calculation of Ki values, three different concentrations were used. The Lineweaver–Burk curves were drawn and calculations were realised as before.

HSC-2 = assay: Cytotoxic activity (MTT) against OSCC cell line HSC-2; type: cell-based, human; settings: for increase in cytotoxicity compared to non-substituted compound 1: HSC-2 CC50 ratio versus compound 1; for CC50: Homo sapiens, HSC-2, 48 h incubation, MTT, triplicate; for increase in TS (selectivity) compared to compound 1: TS ratio versus compound 1; for PSE (B/A2)×100: potency-selectivity expression = mean CC50 normal cells / (CC50 HSC-2)^2 × 100; for TS (B/A): tumour specificity = mean CC50 normal cells (HGF, HPLF) / CC50 HSC-2
Experimental: as §1, §2
(§4) Tumour specificity (TS) was calculated using the following equation: TS = Mean CC50 against three normal oral cell types (HGF, HPLF)/Mean CC50 against four OSCC cell lines (HSC-2). Since HGF cells were derived from gingival tissue, the relative sensitivity of these cells was also compared (as mean CC50 against HGF/mean CC50 against HSC-2).

[3] = Cytotoxic activity (MTT), mean over human normal oral cells; type: cell-based; settings: HGF and HPLF normal oral fibroblasts (mean of both), read-out: CC50 Human normal oral cells Mean (B)
Experimental: as §1, §2, §4

hCA I = hCA I (Homo sapiens, UniProt P00915); assay: Carbonic anhydrase inhibition, hCA I; type: biochemical; settings: for Ki: Lineweaver–Burk, three concentrations
Experimental: as §3

hCA I, sequence (P00915 whole entry): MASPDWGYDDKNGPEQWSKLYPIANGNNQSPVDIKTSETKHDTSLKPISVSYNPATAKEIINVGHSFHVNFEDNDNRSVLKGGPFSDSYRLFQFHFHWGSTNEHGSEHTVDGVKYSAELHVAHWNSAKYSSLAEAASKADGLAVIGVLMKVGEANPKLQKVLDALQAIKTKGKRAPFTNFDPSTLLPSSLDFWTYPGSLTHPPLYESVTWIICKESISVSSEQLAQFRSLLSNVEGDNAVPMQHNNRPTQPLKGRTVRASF

| Structure (SMILES) | CC50 at 48 h [1] [µM] | CC50 at 48 h [2] [µM] | IC50 (hCA II) [µM] | Ki (hCA II) [µM] | increase in cytotoxicity compared to non-substituted compound 1 (HSC-2) [times] | CC50 (HSC-2) [µM] | increase in TS (selectivity) compared to compound 1 (HSC-2) [times] | PSE (B/A2)×100 (HSC-2) | TS (B/A) (HSC-2) | CC50 at 48 h [3] [µM] | melting point [°C] | IC50 (hCA I) [µM] | Ki (hCA I) [µM] | cytotoxicity reduced compared to compound 1 (HSC-2; HSC-2 CC50 ratio versus compound 1, decrease) [times] | times more cytotoxic than 5-FU (HSC-2; HSC-2 CC50 ratio versus 5-FU) [times] | times low cytotoxic than DXR (HSC-2; HSC-2 CC50 ratio versus DXR) [times] | PSE value higher than 5-FU (HSC-2; PSE ratio versus 5-FU) | PSE value compared to compound 1 (HSC-2; PSE ratio versus compound 1) [times] |
| --- | --- | --- | --- | --- | --- | --- | --- | --- | --- | --- | --- | --- | --- | --- | --- | --- | --- | --- |
| Cc1ccc(C=CC(=O)c2ccc3[nH]c(=O)oc3c2)cc1 [Compound 2, 6-[3-(4-Metyhlphenyl)-2-propenoyl]-3H-benzoxazol-2-one] | 87.7 | 105 | 45.6 | 32.1 ± 6.6 | 2.2 | 10.1 | 2.7 | 94 | 9.5 | 96.5 | 258 to 260 | 33 | 38.8 ± 1.93 |  |  |  |  |  |
| CN(C)c1ccc(C=CC(=O)c2ccc3[nH]c(=O)oc3c2)cc1 [Compound 7, 6-[3-(4-Dimethylaminophenyl)-2-propenoyl]-3H-benzoxazol-2-one] | 76.3 | 70 | 29.7 | 10.8 ± 2.14 |  | 30.2 |  | 8 | 2.4 | 73.2 | 248 to 250 | 40.3 | 52.3 ± 9.97 | 1.4 |  |  |  |  |
| O=C(C=Cc1cccc(O)c1)c1ccc2[nH]c(=O)oc2c1 [Compound 5, 6-[3-(3-Hydroxyphenyl)-2-propenoyl]-3H-benzoxazol-2-one] | 55.4 | 50.3 | 48.5 | 35.2 ± 8.36 |  | 6.9 |  | 111 | 7.7 | 52.9 | 277 to 279 | 69.6 | 63 ± 15.4 |  |  |  |  |  |
| O=C(C=Cc1ccccc1)c1ccc2[nH]c(=O)oc2c1 [Compound 1, 6-(3-Phenyl-2-propenoyl)-3H-benzoxazol-2-one] | 71 | 83.3 | 40.5 | 36.2 ± 13.3 |  | 22.1 |  | 16 | 3.5 | 77.2 | 230 to 232 | 58.7 | 70.6 ± 6.67 |  |  |  |  |  |
| O=c1[nH]cc(F)c(=O)[nH]1 [Compound 5-FU, 5-Fluorouracil, reference compound] | > 1000 | > 1000 |  |  |  | 37.7 |  | 80.7 |  | > 1000 |  |  |  |  |  |  |  |  |
| COc1cccc2c1C(=O)c1c(O)c3c(c(O)c1C2=O)C[C@@](O)(C(=O)CO)C[C@@H]3O[C@H]1C[C@H](N)[C@H](O)[C@H](C)O1 [DXR, Doxorubicin, reference compound] | 0.7 | > 10 |  |  |  | 0.5 |  | >2030 |  | > 5.3 |  |  |  |  |  |  |  |  |
| CC(C)c1ccc(C=CC(=O)c2ccc3[nH]c(=O)oc3c2)cc1 [Compound 6, 6-[3-(4-Isopropylphenyl)-2-propenoyl]-3H-benzoxazol-2-one] | 53 | 76 | 30.1 | 33.3 ± 6.15 | 2.2 | 10.1 | 1.8 | 64 | 6.4 | 64.5 | 220 to 222 | 52.1 | 37.1 ± 7.77 |  |  |  |  |  |
| COc1ccc(C=CC(=O)c2ccc3[nH]c(=O)oc3c2)cc1 [Compound 3, 6-[3-(4-Methoxyphenyl)-2-propenoyl]-3H-benzoxazol-2-one] | 88.3 | 84 | 48.1 | 36.2 ± 10.3 | 1.5 | 14.5 |  | 41 | 5.9 | 86.2 | 210 to 213 | 47.5 | 30.5 ± 11.3 |  |  |  |  |  |
| O=C(C=Cc1ccc(OCc2ccccc2)cc1)c1ccc2[nH]c(=O)oc2c1 [Compound 8, 6-[3-(4-Benzyloxyphenyl)-2-propenoyl]-3H-benzoxazol-2-one] | 98 | 32.7 | 18.1 | 38 ± 2.36 | 1.9 | 11.9 |  | 46 | 5.5 | 65.3 | 243 to 245 | 57.7 | 28.4 ± 6.63 |  |  |  |  |  |
| O=C(C=Cc1ccc(C(F)(F)F)cc1)c1ccc2[nH]c(=O)oc2c1 [Compound 4, 6-[3-(4-Trifluoromethylphenyl)-2-propenoyl]-3H-benzoxazol-2-one] | 24.7 | 26.3 | 45 | 19.2 ± 2.19 | 5.5 | 4 | 1.8 | 159 | 6.4 | 25.5 |  | 29.7 | 30.8 ± 3.49 |  | 9.4 | 8 | about 2 times | 9.9 |

Reference: article PMC6781194, “Synthesis, cytotoxicities, and carbonic anhydrase inhibition potential of 6-(3-aryl-2-propenoyl)-2(3H)-benzoxazolones” (Journal of Enzyme Inhibition and Medicinal Chemistry, 2019)
